Values belong to the compound of their own block, whether it stands above or below them.
Legend:
[1] = target: nNOS in 293T cells overexpressing nNOS (293T/nNOS cells) (Rattus norvegicus, UniProt P29476); experiment: Cell-based nNOS inhibition assay; conditions: for activity in the cell-based assay (in words): A23187 (5 μM), 8 h
[2] = target: rat nNOS (Rattus norvegicus, UniProt P29476); experiment: NOS inhibition, hemoglobin; assay type: biochemical
[3] = rodent in vivo studies; cited from earlier work

SMILES: Cc1cc(N)nc(CCc2ccc3ccc(CCc4cc(C)cc(N)n4)cc3c2)c1 [3c, 6,6'-(2,2'-(Naphthalene-2,7-diyl)bis(ethane-2,1-diyl))bis(4-methylpyridin-2-amine)]
- binding / inhibition of nNOS (in words) [2]: sub-micromolar binding affinity

SMILES: Cc1cc(C)nc(NCc2ccc3cc(CNc4cc(C)cc(C)n4)ccc3c2)c1 [3a, N,N'-(Naphthalene-2,6-diylbis(methylene))bis(4,6-dimethylpyridin-2-amine)]
- binding / inhibition of nNOS (in words) [2]: poor binding

SMILES: Cc1cc(N)nc(CCc2ccc3cc(CCc4cc(C)cc(N)n4)ccc3c2)c1 [3b, 6,6'-(2,2'-(Naphthalene-2,6-diyl)bis(ethane-2,1-diyl))bis(4-methylpyridin-2-amine)]
- binding / inhibition of nNOS (in words) [2]: sub-micromolar binding affinity

SMILES: Cc1cc(N)nc(CCc2ccc3ccc(CCc4cc(C)nc(N)c4)cc3c2)c1 [3d, 4-(2-(7-(2-(6-Amino-4-methylpyridin-2-yl)ethyl)naphthalen-2-yl)ethyl)-6-methylpyridin-2-amine]
- binding / inhibition of nNOS (in words) [2]: poor inhibitor

SMILES: Cc1cc(N)nc(CCc2cncc(CCc3cc(C)cc(N)n3)c2)c1 [3j, 6,6'-(2,2'-(Pyridine-3,5-diyl)bis(ethane-2,1-diyl))bis(4-methylpyridin-2-amine)]
- membrane penetration ability (in words, from cell-based assay) [1]: good membrane penetration ability

SMILES: Cc1cc(N)nc(C[C@@H]2CNC[C@@H]2NCCNCCc2cccc(F)c2)c1 [compound 2]
- ability to penetrate the blood brain barrier (BBB) [3]: poor ability to penetrate the blood brain barrier

SMILES: Cc1cc(N)nc(C[C@H]2CNC[C@H]2NCCNCCc2cccc(F)c2)c1 [compound 1]
- ability to penetrate the blood brain barrier (BBB) [3]: poor ability to penetrate the blood brain barrier

Continued, values first:

- membrane penetration ability (in words, from cell-based assay) [1]: good membrane penetration ability
SMILES: Cc1cc(N)nc(CCc2cncc(CCc3cc(C)nc(N)c3)c2)c1 [3k, 4-(2-(5-(2-(6-Amino-4-methylpyridin-2-yl)ethyl)pyridin-3-yl)ethyl)-6-methylpyridin-2-amine]

- binding / inhibition of nNOS (in words) [2]: binds rather poorly
SMILES: Cc1cc(CCc2cccc(CCc3cc(C)nc(N)c3)c2)cc(N)n1 [3i, 4,4'-(2,2'-(1,3-Phenylene)bis(ethane-2,1-diyl))bis(6-methylpyridin-2-amine)]

- activity in the cell-based assay (in words) [1]: almost no activity
SMILES: Cc1cc(N)nc(CCc2cccc(CCc3cc(C)cc(N)n3)c2)c1 [3g, 6,6'-(2,2'-(1,3-Phenylene)bis(ethane-2,1-diyl))bis(4-methylpyridin-2-amine)]

- activity in the cell-based assay (in words) [1]: almost no activity
SMILES: Cc1cc(N)nc(CCc2cccc(CCc3cc(C)nc(N)c3)c2)c1 [3h, 4-(3-(2-(6-Amino-4-methylpyridin-2-yl)ethyl)phenethyl)-6-methylpyridin-2-amine]

Reference: paper PMC3072459 (Journal of medicinal chemistry, 2011)
